Assay results as given in PubChem BioAssay (NCI).
Several values for one entry are separate records, joined by “and”; a condition that tells them apart may be missing. Identical values can stand only once.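 Tested at 5 concentrations; 48 h exposure; 96-well plates; endpoints linearly interpolated, else capped at highest concentration. Abbreviation: GI50, concentration required for 50% inhibition of growth. TGI is the concentration that stops growth completely.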

How the values were obtained:
Assay in all cases: inhibition of tumour cell growth, NCI panel, 48 h
[1] = system: MCF7 breast
[2] = system: SF-539 CNS
[3] = system: SF-295 CNS
[4] = system: LOX IMVI melanoma
[5] = system: U251 CNS
[6] = system: M14 melanoma
[7] = system: NCI/ADR-RES ovarian
[8] = system: MDA-MB-231 breast
[9] = system: HL-60(TB) leukemia
[10] = system: HCT-15 colon

| SMILES | GI50 [1] | TGI [1] | GI50 [2] [µM] | TGI [2] [µM] | GI50 [3] | TGI [3] | GI50 [4] | TGI [4] | GI50 [5] | TGI [5] | GI50 [6] [µM] | TGI [6] [µM] | GI50 [7] [µM] | TGI [7] [µM] | GI50 [8] [µM] | TGI [8] | GI50 [9] | TGI [9] | GI50 [10] | TGI [10] |
| --- | --- | --- | --- | --- | --- | --- | --- | --- | --- | --- | --- | --- | --- | --- | --- | --- | --- | --- | --- | --- |
| COc1ccc(C2=Nn3c(nnc3-c3ccc(F)c(Cl)c3)SC2)cc1 | > 100 µM | > 100 µM | > 100 | > 100 | > 100 µM | > 100 µM | > 100 µM | > 100 µM | > 100 µM | > 100 µM | > 100 | > 100 | > 100 | > 100 | 29.5 | > 100 µM | > 100 µM | > 100 µM | > 100 µM | > 100 µM |
| CC(=O)c1cc2c(Br)cccc2oc1=O |  | > 100 µM |  | > 100 |  | > 100 µM |  | > 100 µM |  | > 100 µM |  | > 100 |  | > 100 |  | > 100 µM |  | > 100 µM |  | > 100 µM |
| CCC/C=C/C=C/C(=O)OC1/C(=C/C(=O)OC)CC2CC(C(C)O)OC(=O)CC(O)CC3CC(OC(C)=O)C(C)(C)C(O)(CC4C/C(=C/C(=O)OC)CC(/C=C/C(C)(C)C1(O)O2)O4)O3 (stereo not drawn) | > 10.9 µM and 5.88 µM and > 12.5 µM | > 10.9 µM and 11 µM and > 12.5 µM | > 11 | > 12.5 | > 10.9 µM and 6.77 µM and > 12.5 µM | > 10.9 µM and 11 µM and > 12.5 µM | > 10.9 µM and 8.02 µM and > 12.5 µM | > 10.9 µM and 11 µM and > 12.5 µM | > 10.9 µM and 7.21 µM and > 12.5 µM | > 10.9 µM and 9.3 µM and > 12.5 µM |  | > 11 | > 12.5 | > 12.5 | > 12.5 | 11 µM and > 12.5 µM | 4.61 µM and 1.81 µM and > 12.5 µM | 10.9 µM and 5.43 µM and > 12.5 µM | 5.15 µM and 10.8 µM and > 12.5 µM | 7.35 µM and 11 µM and > 12.5 µM |
| COc1ccc(C2=C(c3ccc(OC)cc3)C(=O)OC2)cc1 | 0.492 µM | 16.2 µM | 0.745 | 6.67 | 0.549 µM |  | 0.964 µM | 15.1 µM | 0.421 µM | 3.46 µM | 1.64 | 12.4 | 2.89 | 28.4 | 5.15 | > 39.3 µM | 0.525 µM | 4.58 µM | 0.514 µM | 8.27 µM |
| O=C(c1ccc(Cl)cc1Cl)N1CCN(C(=O)c2ccc(Cl)cc2Cl)C1=S | 18.3 µM | 36.7 µM | 27.2 | 49.6 | 22.9 µM | 61.7 µM | 17.1 µM | 30.8 µM | 17.8 µM | 35.3 µM | 16.3 | 30.2 | 24.8 | 74.3 | 19.1 | 38.7 µM | 16.6 µM | 34.1 µM | 22.1 µM | 57.3 µM |
| Nc1[nH]nc(Nc2ccccc2)c1-c1nc2ccccc2s1 | 2.26 µM | 8.68 µM | 1.68 | 3.34 | 1.56 µM | 3.27 µM | 1.59 µM | 2.97 µM | 2.26 µM | 5.5 µM | 1.55 | 3.58 | 2.11 | 6.64 | 1.59 | 3.75 µM | 2.61 µM | 7 µM | 1.18 µM | 3.04 µM |
| O=CNC(Cc1cnc[nH]1)C(=O)O (stereo not drawn) |  | > 100 µM |  | > 100 |  | > 100 µM |  | > 100 µM |  | > 100 µM |  | > 100 |  | > 100 |  | > 100 µM |  | > 100 µM |  | > 100 µM |
| COc1cc(C[C@H]2COC(=O)[C@]2(O)Cc2ccc(OCc3ccccc3)c(OC)c2)ccc1OCc1ccccc1 | 8.17 µM | > 100 µM | 37.6 | > 100 | 18.9 µM | > 100 µM | 35.9 µM | > 100 µM | 23.9 µM | > 100 µM | 47 | > 100 | 5.18 | > 100 | > 100 | > 100 µM | 28 µM | > 100 µM | 19 µM | > 100 µM |
| CC(NCCN(C)C)C1CCC2C3CCc4cc(O)ccc4C3CCC12C (stereo not drawn) |  | 11.5 µM |  | 9.52 |  | 6.72 µM |  | 4.75 µM |  | 4.35 µM |  | 3.09 |  | 8.97 |  | 4.42 µM |  | 4.15 µM |  | 9.49 µM |
| COc1cc(/C=C/C(=O)c2c(C)n([O-])c3ccccc3[n+]2=O)cc(OC)c1OC | 3.18 µM | 13.4 µM | 11.5 | 23.7 | 4.34 µM | 14.8 µM | 5.25 µM | 17.4 µM | 5.14 µM | 17.2 µM | 5.28 | 18.8 | 4.02 | 20 | 9.57 | 22.4 µM | 5.24 µM | > 100 µM | 4 µM | 15.6 µM |
| CCN1C(=O)N(CC)C2C1NN=c1s/c(=C3\C(=O)Nc4ccccc43)c(=O)n12 (stereo not drawn) | 0.354 µM | > 89.7 µM | 0.309 | 1.7 | 0.463 µM | 12.4 µM | 0.625 µM | 29.2 µM | 0.556 µM | 21 µM | 0.33 | 3.36 | 5.67 | > 100 | 2.41 | 49.9 µM | 0.296 µM | 0.91 µM | 0.41 µM | > 100 µM |
| C[C@H]1C[C@@H](n2c(Nc3ccc(OC(F)(F)F)cc3)nc3cc(CCC(=O)O)ccc32)CC(C)(C)C1 | 6.29 µM | 22.6 µM | 13.1 | 37.7 | 4.85 µM | 19.1 µM | 11.8 µM | 25.9 µM | 11.2 µM | 28.1 µM | 7.09 | 25 | 11.7 | 27.5 | 16 | 32.9 µM | 10.3 µM | 29.1 µM | 5.69 µM | 18.9 µM |
| O=C1c2ccccc2C(=O)c2c1ccc1conc21 |  | 2.65 µM |  | 3.87 |  | 4.97 µM |  | 1.78 µM |  | 3.14 µM |  | 5.7 |  | 8.45 |  | 1.42 µM |  | 4.16 µM |  | 5.66 µM |
| CC(=O)CC[N+](C)(C)C |  | 64.8 µM |  | 82.9 |  | > 100 µM |  | 37.8 µM |  | 59.9 µM |  | 52.1 |  | > 76.9 |  | 38.6 µM |  | 14 µM |  | 46.4 µM |
